{"source": "patent US20050175589A1", "about": "“Anti-neoplastic viral agents” (priority 2001, published 2005)", "key": {"[1]": {"system": "Hct116 cells with homozygous deletion of p53", "procedure": "(§1) (a) Sensitivity of colon cancer cell lines to 5-FU. Cells were stained four days after addition of the drug. (b to e, g) Cytopathic effect assays using 10-fold dilutions of virus starting from a concentration of 10 pfu/cell. Fresh medium was added four days after infection and cells were stained 5 (SW480), 7 (Hct116 and Hct116^−/−), or 8 (HT29 and HLF) days post-infection. (f) 5-FC was added either immediately after infection (early, E) or four days after infection (late, L). Cells were stained 8 days after infection.\n(§2) Cells in six-well plates were infected with ten-fold dilutions of virus in DMEM. Two hours after infection, the medium was replaced with complete medium containing or not 100 μg/ml of 5-fluorocytosine (Sigma, St. Louis, USA). Four days after infection, new medium was added. Late addition of 5-FC was performed at that time. After five to eight days (see legend to FIG. 4), the cells were fixed with 4% formaldehyde in PBS and stained with crystal violet. For the sensitivity to 5-fluorouracil (Sigma, St. Louis, USA), the drug was added at various concentrations for four days before staining with crystal violet."}, "SW480 cells": {"system": "SW480 cells", "procedure": "as §1, §2"}}}
{"smiles": "O=c1[nH]cc(F)c(=O)[nH]1", "note": "[5-FU, 5-fluorouracil]", "values": [{"measurement": "resistance of p53-deleted Hct116 cells to 5-FU relative to parental cells", "setting": "[1]", "value": "only slightly more resistant than the parental cells"}, {"measurement": "resistance of SW480 cells to 5-FU relative to the other cell lines", "setting": "SW480 cells", "value": "at least 10 fold"}]}
